Biological target: Dipeptidyl peptidase 2 (Homo sapiens, UniProt Q9UHL4)
Assay: Inhibition of DPP2

IC50 [nM]	Structure (SMILES)
46800	N[C@@H](CC(=O)N1CCCN(C(=O)c2cccc(C(=O)O)c2)CC1)Cc1cc(F)c(F)cc1F
99400	N[C@@H](CC(=O)N1CCCN(C(=O)c2cncc(C(=O)O)c2)CC1)Cc1cc(F)c(F)cc1F

Biological target: Dipeptidyl peptidase 4 (Homo sapiens, UniProt P27487)
Sequence (P27487 whole entry): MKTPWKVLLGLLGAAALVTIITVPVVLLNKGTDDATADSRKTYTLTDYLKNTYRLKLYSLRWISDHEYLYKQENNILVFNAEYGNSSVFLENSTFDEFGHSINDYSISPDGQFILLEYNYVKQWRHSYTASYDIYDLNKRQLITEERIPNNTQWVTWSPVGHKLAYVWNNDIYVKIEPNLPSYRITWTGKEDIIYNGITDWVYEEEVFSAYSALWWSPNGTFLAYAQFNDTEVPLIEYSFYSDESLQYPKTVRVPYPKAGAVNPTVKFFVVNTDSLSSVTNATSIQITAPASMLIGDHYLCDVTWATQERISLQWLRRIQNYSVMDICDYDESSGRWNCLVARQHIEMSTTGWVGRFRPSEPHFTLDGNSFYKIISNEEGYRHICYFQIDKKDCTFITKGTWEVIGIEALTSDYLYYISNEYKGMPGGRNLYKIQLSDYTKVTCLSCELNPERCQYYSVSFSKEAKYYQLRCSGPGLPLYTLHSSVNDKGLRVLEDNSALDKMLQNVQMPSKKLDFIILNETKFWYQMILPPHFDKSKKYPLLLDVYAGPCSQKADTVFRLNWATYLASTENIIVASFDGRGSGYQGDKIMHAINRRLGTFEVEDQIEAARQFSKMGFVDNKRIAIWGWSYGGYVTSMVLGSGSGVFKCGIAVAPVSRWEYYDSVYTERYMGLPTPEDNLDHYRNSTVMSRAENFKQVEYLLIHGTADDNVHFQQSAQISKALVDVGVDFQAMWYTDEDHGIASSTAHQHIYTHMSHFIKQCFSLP

Structure (SMILES)	IC50 [nM]
CC(=O)N1CCCN(C(=O)C[C@H](N)Cc2cc(F)c(F)cc2F)CC1	3400
CCN1CCCN(C(=O)C[C@H](N)Cc2cc(F)c(F)cc2F)CC1	6400
N[C@@H](CC(=O)N1CCCN(c2cnccn2)CC1)Cc1cc(F)c(F)cc1F	423
N[C@@H](CC(=O)N1CCCN(C(=O)OCc2ccccc2)CC1)Cc1cc(F)c(F)cc1F	490
CN1CCN(C(=O)N2CCCN(C(=O)C[C@H](N)Cc3cc(F)c(F)cc3F)CC2)CC1	1500
Cc1ccc(S(=O)(=O)N2CCCN(C(=O)C[C@H](N)Cc3cc(F)c(F)cc3F)CC2)cc1	350
CS(=O)(=O)N1CCCN(C(=O)C[C@H](N)Cc2cc(F)c(F)cc2F)CC1	3100
N[C@@H](CC(=O)N1CCCN(S(=O)(=O)c2ccc([N+](=O)[O-])cc2)CC1)Cc1cc(F)c(F)cc1F	405
N[C@@H](CC(=O)N1CCCNCC1)Cc1cc(F)c(F)cc1F	1440
N[C@@H](CC(=O)N1CCCN(c2ncccn2)CC1)Cc1cc(F)c(F)cc1F	597
N[C@@H](CC(=O)N1CCCN(Cc2ccccc2)CC1)Cc1cc(F)c(F)cc1F	387

Other lines, results leading:

IC50 [nM]	Structure (SMILES)
260	N[C@@H](CC(=O)N1CCCN(C(=O)c2ccc(C(=O)O)o2)CC1)Cc1cc(F)c(F)cc1F
239	N[C@@H](CC(=O)N1CCCN(S(=O)(=O)c2ccc(C(=O)O)cc2)CC1)Cc1cc(F)c(F)cc1F
788	N[C@@H](CC(=O)N1CCCN(C(=O)Nc2ccc(C(=O)O)cc2)CC1)Cc1cc(F)c(F)cc1F
180	NC(=O)c1ccc(C(=O)N2CCCN(C(=O)C[C@H](N)Cc3cc(F)c(F)cc3F)CC2)cc1
288	N[C@@H](CC(=O)N1CCCN(C(=O)c2ccc(S(N)(=O)=O)cc2)CC1)Cc1cc(F)c(F)cc1F
150	N[C@@H](CC(=O)N1CCCN(C(=O)c2ccc(C(=O)O)nc2)CC1)Cc1cc(F)c(F)cc1F
50	N[C@@H](CC(=O)N1CCCN(C(=O)c2cccc(C(=O)O)c2)CC1)Cc1cc(F)c(F)cc1F
67	N[C@@H](CC(=O)N1CCCN(C(=O)c2cncc(C(=O)O)c2)CC1)Cc1cc(F)c(F)cc1F
490	N[C@@H](CC(=O)N1CCCN(C(=O)c2ccc3c(c2)OCO3)CC1)Cc1cc(F)c(F)cc1F
410	N[C@@H](CC(=O)N1CCCN(C(=O)c2cccnc2)CC1)Cc1cc(F)c(F)cc1F
510	N[C@@H](CC(=O)N1CCCN(C(=O)c2ccccc2)CC1)Cc1cc(F)c(F)cc1F
1390	N[C@@H](CC(=O)N1CCCN(C(=O)Nc2ccccc2)CC1)Cc1cc(F)c(F)cc1F

Source: ChEMBL document CHEMBL1141018, “Synthesis and biological evaluation of homopiperazine derivatives with beta-aminoacyl group as dipeptidyl peptidase IV inhibitors” (Bioorg Med Chem Lett, 2008)
